Test results: patent US7196104B2, “Thiazolyl urea compounds and methods of uses” (Amgen, Inc., priority 2000, dated 2007)

SMILES | melting point [°C]
CCCc1cccc(NC(=O)Nc2csc(-c3ccnc(CC)c3)n2)n1 [Example 14, N-[2-(2-Ethyl-4-pyridinyl)-4-thiazolyl]-N′-2-(6-propylpyridinyl)urea] | 204 to 206
CN1CCN(c2cccc(NC(=O)Nc3csc(-c4ccncc4)n3)n2)CC1 [Example 31, N-[2-(4-Pyridinyl)-4-thiazolyl]-N′-2-[6-(1-methyl-4-piperazinyl)pyridinyl]urea] | 251 to 253
O=C(Nc1cccc(NCCCN2CCOCC2)n1)Nc1csc(-c2ccncc2)n1 [Example 33] | 215 to 217
NC(=O)c1ccc(NC(=O)Nc2csc(-c3ccncc3)n2)nc1 [Example 34, [[(2-(4-Pyridinyl)-4-thiazolylamino)carbonyl]amino]-2-pyridinyl-5-carboxamide] | 255 to 257
CN(C)CCNc1cccc(NC(=O)Nc2csc(-c3ccncc3)n2)n1 [Example 35, N-[2-(4-Pyridinyl)-4-thiazolyl]-N′-2-[6-(N″,N″-aminoethylamino)pyridinyl]urea] | 210 to 212
CC(C)(C)c1cc(NC(=O)Nc2csc(-c3cccnc3)n2)no1 [Example 37, N-[2-(3-Pyridinyl)-4-thiazolyl]-N′-[5-(1,1-dimethylethyl)-3-isoxazolyl]urea] | 230 to 232
Cc1cc(C)nc(NC(=O)Nc2csc(-c3ccccn3)n2)c1 [Example 40, N-[2-(2-Pyridinyl)-4-thiazolyl]-N′-2-(4,6-dimethylpyridinyl)urea] | 232 to 234
Cc1ccc2nc(NC(=O)Nc3csc(-c4ccccn4)n3)sc2c1 [Example 41, N-[2-(2-Pyridinyl)-4-thiazolyl]-N′-2-(6-methylbenzthiazolyl)urea] | 263 to 265
CCCc1cccc(NC(=O)Nc2csc(-c3ccc(OC)cc3)n2)n1 [Example 45, N-[2-(4-Methoxyphenyl)-4-thiazolyl]-N′-2-(6-propylpyridinyl)urea] | 223 to 225
CCCc1cccc(NC(=O)Nc2csc(-c3ccc(O)cc3)n2)n1 [Example 46, N-[2-(4-Hydroxyphenyl)-4-thiazolyl]-N′-2-(6-propylpyridinyl)urea] | 227 to 229
CCCc1cccc(NC(=O)Nc2cccc(-c3ccncc3)c2)n1 [Example 54, N-[3-(4-Pyridinyl)phenyl]-N′-2-(6-propylpyridinyl)urea] | 195 to 198

More lines, now with the values ahead:

melting point [°C] | SMILES
233 to 235 | O=C(Nc1ccccn1)Nc1csc(-c2ccccn2)n1 [Example 5, N-[2-(2-Pyridinyl)-4-thiazolyl]-N′-2-pyridinylurea]
228 to 230 | Cc1ccc(NC(=O)Nc2csc(-c3ccccn3)n2)nc1 [Example 38, N-[2-(2-Pyridinyl)-4-thiazolyl]-N′-2-(5-methylpyridinyl)urea]
217 to 219 | Cc1ccnc(NC(=O)Nc2csc(-c3ccccn3)n2)c1 [Example 42, N-[2-(2-Pyridinyl)-4-thiazolyl]-N′-2-(4-methylpyridinyl)urea]
213 to 215 | CCc1cccc(NC(=O)Nc2csc(-c3ccccn3)n2)n1 [Example 44, N-[2-(2-Pyridinyl)-4-thiazolyl]-N′-2-(6-ethylpyridinyl)urea]
192 to 194 | CCCc1cccc(NC(=O)Nc2csc(-c3cccc(OC)c3)n2)n1 [Example 47, N-[2-(3-Methoxyphenyl)-4-thiazolyl]-N′-2-(6-propylpyridinyl)urea]
201 to 203 | COc1cccc(-c2nc(NC(=O)Nc3ccccn3)cs2)c1 [Example 48, N-[2-(3-Methoxyphenyl)-4-thiazolyl]-N′-2-pyridinylurea]
196 to 198 | CCc1ccnc(NC(=O)Nc2csc(-c3ccccn3)n2)c1 [Example 50, N-[2-(2-Pyridinyl)-4-thiazolyl]-N′-2-(4-ethylpyridinyl)urea]
210 to 212 | CCCc1cccc(NC(=O)Nc2csc(-c3ccccn3)n2)n1 [Example 51, N-[2-(2-Pyridinyl)-4-thiazolyl]-N′-2-(6-propylpyridinyl)urea]
